Laboratory results as given in patent publication US8455497B2, “Inhibitors of aspartyl protease” (Vertex Pharmaceuticals Incorporated, priority 1999, dated 2013).
Where two headings read alike, the source gives them in different places. Values belong to the compound of their own block, whether it stands above or below them.

What was measured:
HIV-1 (strain IIIB) = test: Antiviral activity assay in MT4 cells (propidium iodide based); type: cell-based
Experimental: Antiviral Activity Assay in MT4 Cells
(§1) Aliquots of the test compounds were serially diluted in medium (RPMI 1640, 10% fetal calf serum (FCS), and gentamycin) in 96-well plates (Costar 3598) using a Cetus Pro/Pette. Exponentially growing MT4 cells were harvested and centrifuged at 1000 rpm for 10 min in a Jouan centrifuge (model CR 4 12). Cell pellets were resuspended in fresh medium (RPMI 1640, 20% FCS, 20% IL-2, and gentamycin) to a density of 5×10^5 cells/ml. Cell aliquots were infected by the addition of HIV-1 (strain IIIB) diluted to give a viral multiplicity of infection of 100×TCID50. A similar cell aliquot was diluted with medium to provide a mock-infected control. Cell infection was allowed to proceed for 1 hr at 37° in a tissue culture incubator with humidified 5% CO2 atmosphere. After the 1 hr incubation the virus/cell suspensions were diluted 6-fold with fresh medium, and 125 μl of the cell suspension was added to each well of the plate containing pre-diluted compound. Plates were then placed in a tissue culture incubator with humidified 5% CO2 for 5 days. At the end of the incubation period, 27 μl of 5% Nonidet-40 was added to each well of the incubation plate. After thorough mixing with a Costar multitip pipetter, 60 μl of the mixture was transferred to filter-bottomed 96-well plates. The plates were analyzed in an automated assay instrument (Screen Machine, Idexx Laboratories). The assay makes use of a propidium iodide dye to estimate the DNA content of each well.
The anti-viral potency in MT-4 cells of the compounds set forth in Tables 1 and 2 was determined using the above technique.

[1] = test system: D545701-14 multi protease inhibitor resistant virus; test: Anti-viral activity against resistant virus D545701-14 in MT4 cells; type: cell-based, HIV-1
Experimental: as §1, with “Exponentially” for “Aliquots of the test compounds were serially diluted in medium (RPMI 1640, 10% fetal calf serum (FCS), and gentamycin) in 96-well plates (Costar 3598) using a Cetus Pro/Pette. Exponentially”, “Cell pellets were resuspended in fresh medium (RPMI 1640, 20% FCS, 20% IL-2, and gentamycin) to a density of 5×10^5 cells/ml.” left out, “A similar cell aliquot was diluted with medium to provide a mock-infected control.” left out
(§2) Anti-Viral Activity Against Resistant Viruses
EP13 and DS45701, two multi protease inhibitor resistant viruses were used to assess potency against mutant viruses. These viruses contain the following mutations relative to the consensus sequence of wild type virus: […]

[2] = test system: EP13 multi protease inhibitor resistant virus; test: Anti-viral activity against resistant virus EP13 in MT4 cells; type: cell-based, HIV-1
Experimental: as §1, with “Exponentially” for “Aliquots of the test compounds were serially diluted in medium (RPMI 1640, 10% fetal calf serum (FCS), and gentamycin) in 96-well plates (Costar 3598) using a Cetus Pro/Pette. Exponentially”, “Cell pellets were resuspended in fresh medium (RPMI 1640, 20% FCS, 20% IL-2, and gentamycin) to a density of 5×10^5 cells/ml.” left out, “A similar cell aliquot was diluted with medium to provide a mock-infected control.” left out
as §2
EP13 and DS45701, two multi protease inhibitor resistant viruses were used to assess potency against mutant viruses. These viruses contain the following mutations relative to the consensus sequence of wild type virus:
EP13: Protease amino acid sequence: M46I, L63P, A71V, V82F/L, I84V; No reverse transcriptase mutations.

[3] = wild type HIV-1 virus, MT4 cells, read-out: Wildtype virus - IC50
[4] = D545701-14 multi protease inhibitor resistant virus, MT4 cells, read-out: D545701-14 mutant - IC50
[5] = Human immunodeficiency virus 1, MT4, read-out: Reference data for protease inhibitors (D545701-14), D545701-14 mutant virus
[6] = Human immunodeficiency virus 1, IIIB, wild type HIV-1 virus, MT4 cells, read-out: Wildtype virus - IC50
[7] = MT-4 cells, HIV-1 strain IIIB, 5 days, read-out: IC50 (Antiviral Activity of Compounds of the Invention)

Structure (SMILES): CC(C)CN(C[C@@H](O)[C@H](Cc1ccc(OCc2cccc(C(F)(F)F)c2)cc1)NC(=O)O[C@H]1CO[C@H]2OCC[C@H]21)S(=O)(=O)c1ccc2c(c1)OCO2 [Compound 373]
IC50 (HIV-1 (strain IIIB); [3]): 1 to 10 nM
IC50 [1, 4]: 10 to 100 nM

Structure (SMILES): CC(C)CN(C[C@@H](O)[C@H](Cc1ccc(OCc2ccc(F)cc2)cc1)NC(=O)O[C@H]1CO[C@H]2OCC[C@H]21)S(=O)(=O)c1ccc2c(c1)OCO2 [Compound 371]
IC50 (HIV-1 (strain IIIB); [3]): 10 to 100 nM
IC50 ([2]; EP13 multi protease inhibitor resistant virus, MT4 cells, read-out: EP13 mutant IC50): 1 to 10 nM

Structure (SMILES): CC(C)CN(C[C@@H](O)[C@H](Cc1ccc(OCCc2ccccn2)cc1)NC(=O)O[C@H]1CO[C@H]2OCC[C@H]21)S(=O)(=O)c1ccc2c(c1)OCO2 [Compound 212]
IC50 (HIV-1 (strain IIIB); [3]): 1 to 10 nM
IC50 [1, 4]: 10 to 100 nM

Structure (SMILES): Cc1c(O)cccc1C(=O)N[C@@H](CSc1ccccc1)[C@H](O)CN1C[C@H]2CCCC[C@H]2C[C@H]1C(=O)NC(C)(C)C [Nelfinavir, reference compound]
IC50 [1, 5]: 690 nM

Structure (SMILES): CC(C)CN(C[C@@H](O)[C@H](Cc1ccc(OCc2ccc(C(F)(F)F)cc2)cc1)NC(=O)O[C@H]1CO[C@H]2OCC[C@H]21)S(=O)(=O)c1ccc2c(c1)OCO2 [Compound 372]
IC50 (HIV-1 (strain IIIB); [3]): 1 to 10 nM
IC50 [1, 4]: 10 to 100 nM

Structure (SMILES): CC(C)CN(C[C@@H](O)[C@H](Cc1ccc(OCc2noc(-c3ccccc3)n2)cc1)NC(=O)O[C@H]1CO[C@H]2OCC[C@H]21)S(=O)(=O)c1ccc2c(c1)OCO2 [Compound 375]
IC50 (HIV-1 (strain IIIB); [3]): 1 to 10 nM
IC50 [1, 4]: 10 to 100 nM

Structure (SMILES): CC(C)CN(C[C@@H](O)[C@H](Cc1ccccc1)NC(=O)O[C@H]1CCOC1)S(=O)(=O)c1ccc(N)cc1 [Amprenavir, reference compound]
IC50 [1, 5]: > 1000 nM
IC50 ([2]; Human immunodeficiency virus 1, MT4, read-out: Reference data for protease inhibitors (EP13), EP13 mutant virus): 600 nM

Structure (SMILES): COc1ccccc1-c1nc(COc2ccc(C[C@H](NC(=O)O[C@H]3CO[C@H]4OCC[C@H]43)[C@H](O)CN(CC(C)C)S(=O)(=O)c3ccc4c(c3)OCO4)cc2)no1 [Compound 390, (3R,3aS,6aR)-hexahydrofuro[2,3-b]furan-3-yl (1S,2R)-3-[(1,3-benzodioxol-5-ylsulfonyl)(isobutyl)amino]-2-hydroxy-1-(4-{[5-(2-methoxyphenyl)-1,2,4-oxadiazol-3-yl]methoxy}benzyl) propylcarbamate]
IC50 (HIV-1 (strain IIIB); [3]): 1 to 10 nM
IC50 [1, 4]: 10 to 100 nM

Structure (SMILES): CC(C)CN(C[C@@H](O)[C@H](Cc1ccc(OCCCNC(=O)c2ccccc2)cc1)NC(=O)O[C@H]1CO[C@H]2OCC[C@H]21)S(=O)(=O)c1ccc2c(c1)OCO2 [Compound 233]
IC50 (HIV-1 (strain IIIB); [3]): 1 to 10 nM
IC50 [1, 4]: 10 to 100 nM

Structure (SMILES): CC(C)CN(C[C@@H](O)[C@H](Cc1ccc(OS(=O)(=O)c2ccc([N+](=O)[O-])cc2)cc1)NC(=O)O[C@@H]1CO[C@H]2OCC[C@H]21)S(=O)(=O)c1ccc([N+](=O)[O-])cc1 [Compound 297, 4-((2S,3R)-2-({[(3S,3aS,6aR)-hexahydrofuro[2,3-b]furan-3-yloxy]carbonyl}amino)-3-hydroxy-4-{isobutyl[(4-nitrophenyl)sulfonyl]amino}butyl)phenyl 4-nitrobenzenesulfonate]
IC50 (HIV-1 (strain IIIB); [6]): 10 to 100 nM
IC50 ([2]; Human immunodeficiency virus 1, MT4, read-out: EP13 mutant IC50, EP13 multi protease inhibitor resistant virus, MT4 cells): 10 to 100 nM

Structure (SMILES): CC(C)CN(C[C@@H](O)[C@H](Cc1ccc(OCc2ccoc2)cc1)NC(=O)O[C@H]1CO[C@H]2OCC[C@H]21)S(=O)(=O)c1ccc2c(c1)OCO2 [Compound 210]
IC50 (HIV-1 (strain IIIB); [3]): 1 to 10 nM
IC50 [1, 4]: 10 to 100 nM

IC50 (HIV-1 (strain IIIB); [6]): 10 to 100 nM
Structure (SMILES): Cc1cc(S(=O)(=O)N(CC(C)C)C[C@@H](O)[C@H](Cc2ccc(OCc3cccc(C#N)c3)cc2)NC(=O)O[C@H]2CO[C@H]3OCC[C@H]32)ccc1O [Compound 346]

IC50 (HIV-1 (strain IIIB); [7]): 10 to 100 nM
Structure (SMILES): COCCN(CCOC)CCOc1ccc(CC(NC(=O)OC2COCOC2)C(O)CN(CC(C)C)S(=O)(=O)c2cccc(N)c2)cc1 (centres unmarked) [Compound 25]

IC50 (HIV-1 (strain IIIB); [7]): 10 to 100 nM
Structure (SMILES): CC(C)CN(CC(O)C(Cc1ccc(OCCN2CCOCC2)cc1)NC(=O)OC1CCOC1)S(=O)(=O)c1cccc(N)c1 (centres unmarked) [Compound 23]

Structure (SMILES): CC(C)CN(C[C@@H](O)[C@H](Cc1ccc(OCCCNC(=O)C(C)(C)C)cc1)NC(=O)O[C@H]1CO[C@H]2OCC[C@H]21)S(=O)(=O)c1ccc2c(c1)OCO2 [Compound 232]
IC50 (HIV-1 (strain IIIB); [3]): 1 to 10 nM

IC50 (HIV-1 (strain IIIB); [7]): > 100 nM
Structure (SMILES): COCCN(CCOC)CCOc1ccc(CC(NC(=O)OC(C)(C)C)C(O)CN(CC(C)(C)CCC#N)S(=O)(=O)c2ccc3c(c2)OCO3)cc1 (centres unmarked) [Compound 68]

IC50 (HIV-1 (strain IIIB); [6]): 10 to 100 nM
Structure (SMILES): CCC(CC)ON(C[C@@H](O)[C@H](Cc1ccc(OCc2ccccc2)cc1)NC(=O)OC1COCOC1)S(=O)(=O)c1ccc2c(c1)OCO2 [Compound 330, 1,3-Dioxan-5-yl (1S,2R)-3-[(1,3-benzodioxol-5-ylsulfonyl) (1-ethylpropoxy)amino]-1-[4-(benzyloxy)benzyl]-2-hydroxypropylcarbamate]

IC50 (HIV-1 (strain IIIB); [7]): 10 to 100 nM
Structure (SMILES): COCCN(CCOC)CCOc1ccc(CC(NC(=O)OC2CCOC2)C(O)CN(CC(C)C)S(=O)(=O)c2ccc3c(c2)OCO3)cc1 (centres unmarked) [Compound 24]

IC50 (HIV-1 (strain IIIB); [6]): 1 to 10 nM
Structure (SMILES): CSc1ccc(COc2ccc(C[C@H](NC(=O)O[C@H]3CO[C@H]4OCC[C@H]43)[C@H](O)CN(CC(C)C)S(=O)(=O)c3ccc4c(c3)OCO4)cc2)cc1 [Compound 369]

Structure (SMILES): CC(C)CN(C[C@@H](O)[C@H](Cc1ccc(OCCCCN)cc1)NC(=O)O[C@H]1CO[C@H]2OCC[C@H]21)S(=O)(=O)c1ccc2c(c1)OCO2 [Compound 224, (3R,3aS,6aR)-hexahydrofuro[2,3-b]furan-3-yl (1S,2R)-1-[4-(4-aminobutoxy)benzyl]-3-[(1,3-benzodioxol-5-ylsulfonyl) (isobutyl)amino]-2-hydroxypropylcarbamate]
IC50 (HIV-1 (strain IIIB); [6]): 10 to 100 nM

IC50 (HIV-1 (strain IIIB); [7]): 10 to 100 nM
Structure (SMILES): Cc1cc(COc2ccc(CC(NC(=O)OC3COC4OCCC34)C(O)CN(CC(C)C)S(=O)(=O)c3cccc(N)c3)cc2)no1 (centres unmarked) [Compound 35]

Structure (SMILES): CC(C)CN(C[C@@H](O)[C@H](Cc1ccc(OCCNC(=O)c2ccco2)cc1)NC(=O)O[C@H]1CO[C@H]2OCC[C@H]21)S(=O)(=O)c1ccc2c(c1)OCO2 [Compound 234]
IC50 (HIV-1 (strain IIIB); [3]): 1 to 10 nM

IC50 (HIV-1 (strain IIIB); [6]): 10 to 100 nM
Structure (SMILES): CC(C)(CCCC#N)CN(C[C@@H](O)[C@H](Cc1ccc(OCc2ccccc2)cc1)NC(=O)O[C@H]1CCOC1)S(=O)(=O)c1ccc2c(c1)OCO2 [Compound 307, (3S)-Tetrahydro-3-furanyl (1S,2R)-3-[(1,3-benzodioxol-5-ylsulfonyl)(5-cyano-2,2-dimethylpentyl)amino]-1-[4-(benzyloxy)benzyl]-2-hydroxypropylcarbamate]

IC50 (HIV-1 (strain IIIB); Human immunodeficiency virus 1, MT4, 120 h, MT-4 cells, HIV-1 strain IIIB, 5 days, read-out: IC50 (Antiviral Activity of Compounds of the Invention)): 10 to 100 nM
Structure (SMILES): COCCN(CCOC)CCOc1ccc(C[C@H](NC(=O)OC(C)(C)C)[C@H](O)CN(CC(C)C)S(=O)(=O)c2ccc3c(c2)OCO3)cc1 [Compound 18, Boc Methylenedioxybenzenesulfonamide Bis-Methoxyethylamine Tethered Product]

Structure (SMILES): CCOC(=O)NCCCCOc1ccc(C[C@H](NC(=O)O[C@H]2CO[C@H]3OCC[C@H]32)[C@H](O)CN(CC(C)C)S(=O)(=O)c2ccc3c(c2)OCO3)cc1 [Compound 247]
IC50 (HIV-1 (strain IIIB); [3]): 1 to 10 nM

Structure (SMILES): CC(C)CN(C[C@@H](O)[C@H](Cc1ccc(OCCNC(=O)OC(C)C)cc1)NC(=O)O[C@H]1CO[C@H]2OCC[C@H]21)S(=O)(=O)c1ccc2c(c1)OCO2 [Compound 248]
IC50 (HIV-1 (strain IIIB); [3]): 1 to 10 nM

Structure (SMILES): CC(C)(C)NC(=O)[C@@H]1C[C@@H]2CCCC[C@@H]2CN1C[C@@H](O)[C@H](Cc1ccccc1)NC(=O)[C@H](CC(N)=O)NC(=O)c1ccc2ccccc2n1 [Saguinavir, reference compound]
IC50 ([1]; D545701-14 mutant virus, read-out: Reference data for protease inhibitors (D545701-14)): 900 nM

Structure (SMILES): CC(C)CN(C[C@@H](O)[C@H](Cc1ccc(OCCc2ccncc2)cc1)NC(=O)O[C@H]1CO[C@H]2OCC[C@H]21)S(=O)(=O)c1ccc2c(c1)OCO2 [Compound 211]
IC50 (HIV-1 (strain IIIB); [3]): 1 to 10 nM
